The assay concerns the target T1, human CYP17 in H295R adrenocortical carcinoma cells (Homo sapiens, UniProt P05093).
T1 construct: H295R Adrenocortical carcinoma cells [NCI-H295A, ATCC Number CRL-2128, American Type Culture Collection; host or cells: H295R adrenocortical carcinoma cells
T1 sequence (P05093 1-508): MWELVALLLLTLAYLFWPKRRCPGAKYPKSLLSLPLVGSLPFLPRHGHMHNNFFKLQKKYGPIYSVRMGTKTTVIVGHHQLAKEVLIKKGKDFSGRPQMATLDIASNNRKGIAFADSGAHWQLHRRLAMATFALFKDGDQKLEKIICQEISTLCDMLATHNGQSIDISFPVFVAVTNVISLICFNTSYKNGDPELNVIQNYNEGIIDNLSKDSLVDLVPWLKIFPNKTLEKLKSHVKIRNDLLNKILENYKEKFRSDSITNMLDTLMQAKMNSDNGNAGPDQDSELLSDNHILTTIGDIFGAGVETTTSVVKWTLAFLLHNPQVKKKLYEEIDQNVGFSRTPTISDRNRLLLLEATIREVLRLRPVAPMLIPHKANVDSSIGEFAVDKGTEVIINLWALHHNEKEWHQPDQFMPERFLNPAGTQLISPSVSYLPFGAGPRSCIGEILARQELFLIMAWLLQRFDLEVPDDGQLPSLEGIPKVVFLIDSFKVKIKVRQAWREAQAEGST
Nature of the assay: Cell-based human CYP17 inhibition assay, H295R cells. Conditions: 16 hours, read-out: CYP17 (human H295R adrenal cells). The procedure, abridged: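 H295R cells or LNCaP cells stably transfected with full-length human CYP17A1 (30,000/well) incubated 16 h at 37 °C with ³H-17α-hydroxypregnenolone and compound (top 10 μM, 3-fold dilutions, up to 10 concentrations). Medium chloroform-extracted and charcoal-treated; aqueous-phase radioactivity counted by scintillation.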

A value given as a limit tells only on which side of the number the result lay.

In the case of `COc1ccc(-c2ccc(C(C)(O)c3ccncc3)nc2)cc1` (racemic) [Example 1, 1-(5-(4-Methoxyphenyl)pyridin-2-yl)-1-(pyridin-4-yl)ethanol], the IC50 is 50 to 200 nM.

As for `CC(O)(c1ccncc1)c1cnc(-c2ccc(F)cc2)s1` (racemic) [Example 7, 1-(2-(4-Fluorophenyl)thiazol-5-yl)-1-(pyridin-4-yl)ethanol], the IC50 lay in the range of 50 to 200 nM.

For the molecule `COc1ccc(-c2ccc(C(C)(O)c3ccncc3)nc2)cc1` (single isomer, unassigned) [Example 2, 1-(5-(4-methoxyphenyl)-pyridin-2-yl)-1-(pyridin-4-yl)ethanol], the IC50 was in the range of 50 to 200 nM.

On to `COc1ccc(-c2ccc(C(C)(O)c3ccncc3)nc2)cc1` (single isomer, unassigned) [Example 3, 1-(5-(4-methoxyphenyl)-pyridin-2-yl)-1-(pyridin-4-yl)ethanol], for which the IC50 lay within 201 to 10000 nM.

On to `CC(O)(c1ccncc1)c1cnc(-c2ccc(F)cc2)s1` (single isomer, unassigned) [Example 8, 1-(2-(4-fluorophenyl)thiazol-5-yl)-1-(pyridin-4-yl)ethanol], for which the IC50 lay within 201 to 10000 nM.

As to `CC(O)(c1ccncc1)c1cnc(-c2ccc(F)cc2)s1` (single isomer, unassigned) [Example 9, 1-(2-(4-fluorophenyl)thiazol-5-yl)-1-(pyridin-4-yl)ethanol], the IC50 was < 50 nM.

Regarding `CC(O)(c1ccncc1)c1nc(-c2ccc(F)cc2)no1` (single isomer, unassigned; (+)) [Example 36, (+)-1-(3-(4-fluoro-phenyl)-1,2,4-oxadiazol-5-yl)-1-(pyridin-4-yl)ethanol], the IC50 is < 50 nM.

Consider `Cn1cc(-c2ccc(C(C)(O)c3ccncc3)s2)ccc1=O` (single isomer, unassigned; (-)) [Example 17, (−)-5-(5-(1-hydroxy-1-(pyridin-4-yl)ethyl)thiophen-2-yl)-1-methylpyridin-2(1H)-one], for which the IC50 was < 50 nM.

Regarding `CCC(O)(c1ccncc1)c1cnc(-c2ccc(F)cc2)s1` (stereo not drawn) [Example 4, 1-(2-(4-fluorophenyl)-thiazol-5-yl)-1-(pyridin-4-yl)propan-1-ol], the IC50 fell in the range of 50 to 200 nM.

As for `CC(O)(c1ccncc1)c1ncc(-c2ccc(F)cc2)s1` (stereo not drawn) [Example 14, 1-(5-(4-Fluorophenyl)thiazol-2-yl)-1-(pyridin-4-yl)ethanol], the IC50 is < 50 nM.

As for `Cn1cc(-c2ccc(C(C)(O)c3ccncc3)s2)ccc1=O` (stereo not drawn) [Example 15, 5-(5-(1-Hydroxy-1-(pyridin-4-yl)ethyl)thiophen-2-yl)-1-methyl-pyridin-2(1H)-one], the IC50 was in the range of 50 to 200 nM.

As to `CC(O)(c1ccncc1)c1nc(-c2ccc(F)cc2)no1` (stereo not drawn) [Example 34, 1-(3-(4-Fluorophenyl)-1,2,4-oxadiazol-5-yl)-1-(pyridin-4-yl)ethanol], the IC50 is < 50 nM.

The record behind these values is patent US8809372B2, “Pyridine derivatives” (Endo Pharmaceuticals, Inc., priority 2011, dated 2014).
